Reference: US20230085307A1, “PYRIDAZINONE COMPOUND AND HERBICIDE” (NISSAN CHEMICAL CORPORATION, priority 2019, published 2023)

Key:
late watergrass [1] = assay: Test Example 1: herbicidal activity, application before weed generation under submerged conditions (Table 16, symbol A); format: in vivo, late watergrass (Echinochloa oryzicola); settings: 320 g/ha applied herbicide
Summary of the method: (§1)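 Emulsion formulation, water-diluted to set dose, was put onto the flooded surface (4 cm depth, alluvial soil) the same day weeds were sown and 2.5-leaf rice transplanted. After 3 weeks at 25-30 °C under glass, each species was rated 0 (≤5% kill) to 5 (≥90% kill).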

Japanese bulrush = assay: Test Example 1: herbicidal activity, application before weed generation under submerged conditions (Table 16, symbol B); format: in vivo, Japanese bulrush (Schoenoplectus juncoides); settings: 320 g/ha applied herbicide
Summary of the method: as §1

late watergrass [2] = assay: Test Example 2: herbicidal activity, application during weed generation under submerged conditions (Table 17, symbol A); format: in vivo, late watergrass (Echinochloa oryzicola); settings: AAH 320 g/ha; application during weed generation, submerged conditions
Summary of the method: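 Wagner pot, alluvial soil, 4 cm flood; mixed sowing of all species; greenhouse 25° C.–30° C. Emulsifiable formulation, water-diluted to predetermined dose, applied to paddy water at 1–2 leaf stage. Effect rated at 3 wk using the earlier test's scoring criteria.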

Chinese sprangletop = assay: Test Example 3: herbicidal effect by foliage application, Wagner pot (Table 18, symbol D); format: in vivo, chinese sprangletop (Leptochloa chinensis); settings: amount of applied herbicide 320 g/ha
Summary of the method: (§2)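 Plants were sown in alluvial soil held under 0.1–0.5 cm standing water and grown 14 days in a greenhouse at 25–30 °C. An emulsifiable formulation, water-diluted to the set dose, was then sprayed onto the foliage, and effects were scored three weeks later using previously defined criteria.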

rice flat sedge = assay: Test Example 3: herbicidal effect by foliage application, Wagner pot (Table 18, symbol E); format: in vivo, rice flat sedge (Cyperus iria); settings: amount of applied herbicide 320 g/ha
Summary of the method: as §2

southern crabgrass = assay: Test Example 4: herbicidal effect by soil treatment (Table 19, symbol F); format: in vivo, southern crabgrass (Digitaria ciliaris); settings: amount of applied herbicide 320 g/ha
Summary of the method: (§3)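 Applied as a water-diluted emulsion, the compound was sprayed onto soil covering newly sown seeds. Evaluation came three weeks after application, in a greenhouse held at 25° C. to 30° C.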

wild oat [3] = assay: Test Example 4: herbicidal effect by soil treatment (Table 19, symbol I); format: in vivo, wild oat (Avena fatua); settings: amount of applied herbicide 320 g/ha
Summary of the method: as §3

Italian ryegrass [4] = assay: Test Example 4: herbicidal effect by soil treatment (Table 19, symbol K); format: in vivo, Italian ryegrass (Lolium multiflorum); settings: amount of applied herbicide 320 g/ha
Summary of the method: as §3

windgrass = assay: Test Example 4: herbicidal effect by soil treatment (Table 19, symbol L); format: in vivo, windgrass (Apera spica-venti); settings: amount of applied herbicide 320 g/ha
Summary of the method: as §3

lambsquarters = assay: Test Example 4: herbicidal effect by soil treatment (Table 19, symbol O); format: in vivo, lambsquarters (Chenopodium album); settings: amount of applied herbicide 320 g/ha
Summary of the method: as §3

chickweed = assay: Test Example 4: herbicidal effect by soil treatment (Table 19, symbol P); format: in vivo, common chickweed (Stellaria media); settings: amount of applied herbicide 320 g/ha
Summary of the method: as §3

green foxtail = assay: Test Example 5: herbicidal effect by foliage application, plastic box (Table 20, symbol G); format: in vivo, green foxtail (Setaria viridis); settings: foliage application, AAH 320 g/ha, evaluated three weeks after application
Summary of the method: (§4)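 Sow seeds spot-wise in sterilized diluvial soil; cover with ~1.5 cm soil. Grow 14 days in greenhouse, 25° C. to 30° C. Spray foliage with emulsion diluted to predetermined amount. Rate effect after 3 weeks.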

barnyard grass = assay: Test Example 5: herbicidal effect by foliage application, plastic box (Table 20, symbol H); format: in vivo, barnyard grass (Echinochloa crus-galli); settings: foliage application, AAH 320 g/ha, evaluated three weeks after application
Summary of the method: as §4

wild oat [5] = assay: Test Example 5: herbicidal effect by foliage application, plastic box (Table 20, symbol I); format: in vivo, wild oat (Avena fatua); settings: foliage application, AAH 320 g/ha, evaluated three weeks after application
Summary of the method: as §4

blackgrass = assay: Test Example 5: herbicidal effect by foliage application, plastic box (Table 20, symbol J); format: in vivo, blackgrass (Alopecurus myosuroides); settings: foliage application, AAH 320 g/ha, evaluated three weeks after application
Summary of the method: as §4

Italian ryegrass [6] = assay: Test Example 5: herbicidal effect by foliage application, plastic box (Table 20, symbol K); format: in vivo, Italian ryegrass (Lolium multiflorum); settings: foliage application, AAH 320 g/ha, evaluated three weeks after application
Summary of the method: as §4

velvetleaf = assay: Test Example 5: herbicidal effect by foliage application, plastic box (Table 20, symbol M); format: in vivo, velvetleaf (Abutilon theophrasti); settings: foliage application, AAH 320 g/ha, evaluated three weeks after application
Summary of the method: as §4

SMILES	Herbicidal effect on A: late watergrass (grade 0-5) (late watergrass [1])	Herbicidal effect on B: Japanese bulrush (grade 0-5) (Japanese bulrush)	herbicidal effect rating, A: late watergrass (late watergrass [2])	herbicidal effect on D: Chinese sprangletop (Chinese sprangletop)	herbicidal effect on E: rice flat sedge (rice flat sedge)	herbicidal effect on F: southern crabgrass (southern crabgrass)	herbicidal effect on I: wild oat (wild oat [3])	herbicidal effect on K: Italian ryegrass (Italian ryegrass [4])	herbicidal effect on L: windgrass (windgrass)	herbicidal effect on O: lambsquarters (lambsquarters)	herbicidal effect on P: chickweed (chickweed)	G: green foxtail, herbicidal effect (criteria 0-5) (green foxtail)	H: barnyard grass, herbicidal effect (criteria 0-5) (barnyard grass)	I: wild oat, herbicidal effect (criteria 0-5) (wild oat [5])	J: blackgrass, herbicidal effect (criteria 0-5) (blackgrass)	K: Italian ryegrass, herbicidal effect (criteria 0-5) (Italian ryegrass [6])	M: velvetleaf, herbicidal effect (criteria 0-5) (velvetleaf)
Cc1nn(C)c(=O)c(-c2c(-c3ccc([S+]([O-])C(C)C)cc3)sc3ccc(F)cc23)c1O (centres unmarked) [2-257]	1 (Herbicidal rate of 5% or more and less than 20%)	0 (Herbicidal rate of 5% or less (almost no effect))	2 (Herbicidal rate of 20% or more and less than 40%)	3 (Herbicidal rate of 40% or more and less than 70%)	5 (Herbicidal rate of 90% or more (almost completely withered))	3 (Herbicidal rate of 40% or more and less than 70%)	0 (Herbicidal rate of 5% or less (almost no effect))	3 (Herbicidal rate of 40% or more and less than 70%)	0 (Herbicidal rate of 5% or less (almost no effect))	5 (Herbicidal rate of 90% or more (almost completely withered))	4 (Herbicidal rate of 70% or more and less than 90%)	4 (Herbicidal rate of 70% or more and less than 90%)	5 (Herbicidal rate of 90% or more (almost completely withered))	5 (Herbicidal rate of 90% or more (almost completely withered))	4 (Herbicidal rate of 70% or more and less than 90%)	5 (Herbicidal rate of 90% or more (almost completely withered))	5 (Herbicidal rate of 90% or more (almost completely withered))
Cc1nn(C)c(=O)c(-c2c(-c3ccc(S(C)(=O)=O)cc3)sc3ccc(F)cc23)c1O [2-258]	5 (Herbicidal rate of 90% or more (almost completely withered))	3 (Herbicidal rate of 40% or more and less than 70%)	4 (Herbicidal rate of 70% or more and less than 90%)	5 (Herbicidal rate of 90% or more (almost completely withered))	5 (Herbicidal rate of 90% or more (almost completely withered))	4 (Herbicidal rate of 70% or more and less than 90%)	3 (Herbicidal rate of 40% or more and less than 70%)	5 (Herbicidal rate of 90% or more (almost completely withered))	4 (Herbicidal rate of 70% or more and less than 90%)	4 (Herbicidal rate of 70% or more and less than 90%)	4 (Herbicidal rate of 70% or more and less than 90%)	5 (Herbicidal rate of 90% or more (almost completely withered))	5 (Herbicidal rate of 90% or more (almost completely withered))	5 (Herbicidal rate of 90% or more (almost completely withered))	5 (Herbicidal rate of 90% or more (almost completely withered))	5 (Herbicidal rate of 90% or more (almost completely withered))	5 (Herbicidal rate of 90% or more (almost completely withered))
COCC(=O)Oc1c(C)nn(C)c(=O)c1-c1c(-c2ccc(OC(F)F)cc2)sc2ccc(F)cc12 [2-283]	3 (Herbicidal rate of 40% or more and less than 70%)	5 (Herbicidal rate of 90% or more (almost completely withered))	5 (Herbicidal rate of 90% or more (almost completely withered))	4 (Herbicidal rate of 70% or more and less than 90%)	5 (Herbicidal rate of 90% or more (almost completely withered))	5 (Herbicidal rate of 90% or more (almost completely withered))	0 (Herbicidal rate of 5% or less (almost no effect))	5 (Herbicidal rate of 90% or more (almost completely withered))	4 (Herbicidal rate of 70% or more and less than 90%)	5 (Herbicidal rate of 90% or more (almost completely withered))	4 (Herbicidal rate of 70% or more and less than 90%)	5 (Herbicidal rate of 90% or more (almost completely withered))	5 (Herbicidal rate of 90% or more (almost completely withered))	3 (Herbicidal rate of 40% or more and less than 70%)	4 (Herbicidal rate of 70% or more and less than 90%)	5 (Herbicidal rate of 90% or more (almost completely withered))	5 (Herbicidal rate of 90% or more (almost completely withered))
Cc1nn(C)c(=O)c(-c2c(-c3ccc(OC(F)F)cc3)sc3ccc(F)cc23)c1OC(=O)c1ccc(Cl)cc1 [2-286]	5 (Herbicidal rate of 90% or more (almost completely withered))	3 (Herbicidal rate of 40% or more and less than 70%)	3 (Herbicidal rate of 40% or more and less than 70%)	4 (Herbicidal rate of 70% or more and less than 90%)	4 (Herbicidal rate of 70% or more and less than 90%)	0 (Herbicidal rate of 5% or less (almost no effect))	0 (Herbicidal rate of 5% or less (almost no effect))	5 (Herbicidal rate of 90% or more (almost completely withered))	0 (Herbicidal rate of 5% or less (almost no effect))	3 (Herbicidal rate of 40% or more and less than 70%)	0 (Herbicidal rate of 5% or less (almost no effect))	5 (Herbicidal rate of 90% or more (almost completely withered))	5 (Herbicidal rate of 90% or more (almost completely withered))	1 (Herbicidal rate of 5% or more and less than 20%)	4 (Herbicidal rate of 70% or more and less than 90%)	5 (Herbicidal rate of 90% or more (almost completely withered))	5 (Herbicidal rate of 90% or more (almost completely withered))
